Key:
[1] = target: GDP-bound HRAS wild-type protein (Homo sapiens, UniProt P01112); experiment: Binding to HRAS by surface plasmon resonance (SPR), Single Cycle Kinetics; conditions: KD ratio HRAS/KRAS, class symbols
[2] = target: GDP-bound NRAS wild-type protein (Homo sapiens, UniProt P01111); experiment: Binding to NRAS by surface plasmon resonance (SPR), Single Cycle Kinetics; conditions: KD ratio NRAS/KRAS, class symbols
GDP-bound NRAS wild-type protein, sequence (P01111 whole entry): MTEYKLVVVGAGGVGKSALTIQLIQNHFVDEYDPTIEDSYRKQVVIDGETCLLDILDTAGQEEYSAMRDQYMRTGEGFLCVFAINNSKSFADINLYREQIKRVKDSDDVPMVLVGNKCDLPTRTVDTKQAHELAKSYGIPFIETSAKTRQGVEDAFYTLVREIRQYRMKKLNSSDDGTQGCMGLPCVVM

GDP-bound HRAS wild-type protein, sequence (P01112 whole entry): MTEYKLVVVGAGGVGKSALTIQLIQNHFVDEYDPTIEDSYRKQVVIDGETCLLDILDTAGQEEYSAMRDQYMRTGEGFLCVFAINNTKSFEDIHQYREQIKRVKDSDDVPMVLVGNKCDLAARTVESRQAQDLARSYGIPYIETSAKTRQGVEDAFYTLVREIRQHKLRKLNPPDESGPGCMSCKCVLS

SMILES: CCC[C@H]1C(=O)N[C@@H]([C@@H](C)CC)C(=O)N(C2CC2)CC(=O)N(C)[C@H]2C/C=C\CCN(C2=O)[C@@H](Cc2ccc(C(F)(F)F)cc2)C(=O)N(C)CC(=O)N[C@@H](CCc2ccc(Cl)c(Cl)c2)C(=O)N2C[C@H](OCC)C[C@H]2C(=O)NC2(CC(C)(C)C2)C(=O)N(C)[C@@H](CC2CCC2)C(=O)N(C)[C@H](C(=O)N(C)C)CC(=O)N1C [PP2819]
- HRAS/KRAS (ratio of KD value with respect to GDP-bound HRAS wild-type protein to KD value with respect to KRAS) [1]: A (a compound having 10 or more and less than 20 is denoted as A)
- NRAS/KRAS (ratio of KD value with respect to GDP-bound NRAS wild-type protein to KD value with respect to KRAS) [2]: A (a compound having 10 or more and less than 20 is denoted as A)

SMILES: CCC(CC)[C@H]1C(=O)N(C)[C@H](C(=O)N(C)C)CC(=O)N(C)[C@@H](COC)C(=O)N[C@@H]([C@@H](C)CC)C(=O)N(C)CC(=O)N(C)[C@H]2C/C=C\CCN(C2=O)[C@@H](Cc2ccc(C)cc2)C(=O)N(C)CC(=O)N[C@@H](CCc2ccc(Cl)c(Cl)c2)C(=O)N2CC3(CC3)C[C@H]2C(=O)N(C)C2(CC(C)(C)C2)C(=O)N1C [PP2820]
- HRAS/KRAS (ratio of KD value with respect to GDP-bound HRAS wild-type protein to KD value with respect to KRAS) [1]: A (a compound having 10 or more and less than 20 is denoted as A)
- NRAS/KRAS (ratio of KD value with respect to GDP-bound NRAS wild-type protein to KD value with respect to KRAS) [2]: AA (a compound having 20 or more is denoted as AA)

SMILES: CCO[C@@H]1C[C@H]2C(=O)NC3(CC(C)(C)C3)C(=O)N(C)[C@@H](CC3CCC3)C(=O)N(C)[C@H](C(=O)N(C)C)CC(=O)N(C)[C@@H](COC)C(=O)N[C@@H]([C@@H](C)CC)C(=O)N(C3CC3)CC(=O)N(C)[C@H]3C/C=C\CCN(C3=O)[C@@H](Cc3ccc(C(F)(F)F)cc3)C(=O)N(C)CC(=O)N[C@@H](CCc3ccc(Cl)c(Cl)c3)C(=O)N2C1 [PP2821]
- HRAS/KRAS (ratio of KD value with respect to GDP-bound HRAS wild-type protein to KD value with respect to KRAS) [1]: A (a compound having 10 or more and less than 20 is denoted as A)
- NRAS/KRAS (ratio of KD value with respect to GDP-bound NRAS wild-type protein to KD value with respect to KRAS) [2]: A (a compound having 10 or more and less than 20 is denoted as A)

SMILES: CCO[C@@H]1C[C@H]2C(=O)NC3(CC(C)(C)C3)C(=O)N(C)[C@@H](C3CCCC3)C(=O)N(C)[C@H](C(=O)N(C)CC)CC(=O)N(C)[C@@H](CC)C(=O)N[C@@H]([C@@H](C)CC)C(=O)N(C)CC(=O)N(C)[C@H]3C/C=C\CCN(C3=O)[C@@H](Cc3ccc(C(F)(F)F)cc3)C(=O)N(C)CC(=O)N[C@@H](CCc3ccc(Cl)c(Cl)c3)C(=O)N2C1 [PP2822]
- HRAS/KRAS (ratio of KD value with respect to GDP-bound HRAS wild-type protein to KD value with respect to KRAS) [1]: A (a compound having 10 or more and less than 20 is denoted as A)
- NRAS/KRAS (ratio of KD value with respect to GDP-bound NRAS wild-type protein to KD value with respect to KRAS) [2]: A (a compound having 10 or more and less than 20 is denoted as A)

SMILES: CCO[C@@H]1C[C@H]2C(=O)NC3(CC(C)(C)C3)C(=O)N(C)[C@@H](C3CCCC3)C(=O)N(C)[C@H](C(=O)N(C)CC)CC(=O)N(C)[C@@H](CC)C(=O)N[C@@H]([C@@H](C)CC)C(=O)N(C)CC(=O)N(C)[C@H]3C/C=C\CCN(C3=O)[C@@H](Cc3ccc(C(F)(F)F)cc3)C(=O)N(C)CC(=O)N[C@@H](CCc3ccc(C(F)(F)F)c(Cl)c3)C(=O)N2C1 [PP2823]
- HRAS/KRAS (ratio of KD value with respect to GDP-bound HRAS wild-type protein to KD value with respect to KRAS) [1]: A (a compound having 10 or more and less than 20 is denoted as A)
- NRAS/KRAS (ratio of KD value with respect to GDP-bound NRAS wild-type protein to KD value with respect to KRAS) [2]: A (a compound having 10 or more and less than 20 is denoted as A)

SMILES: CCO[C@@H]1C[C@H]2C(=O)NC3(CCC3)C(=O)N(C)[C@@H](C3CCCC3)C(=O)N(C)[C@H](C(=O)N(C)CC)CC(=O)N(C)[C@@H](CC3CCC3)C(=O)N[C@@H]([C@@H](C)CC)C(=O)N(C)CC(=O)N(C)[C@H]3C/C=C\CCN(C3=O)[C@@H](Cc3ccc(C(F)(F)F)cc3)C(=O)N(C)CC(=O)N[C@@H](CCc3ccc(Cl)c(Cl)c3)C(=O)N2C1 [PP2824]
- HRAS/KRAS (ratio of KD value with respect to GDP-bound HRAS wild-type protein to KD value with respect to KRAS) [1]: A (a compound having 10 or more and less than 20 is denoted as A)
- NRAS/KRAS (ratio of KD value with respect to GDP-bound NRAS wild-type protein to KD value with respect to KRAS) [2]: A (a compound having 10 or more and less than 20 is denoted as A)

SMILES: CCO[C@@H]1C[C@H]2C(=O)NC3(CCC3)C(=O)N(C)[C@@H](C3CCCC3)C(=O)N(C)[C@H](C(=O)N(C)CC)CC(=O)N(C)[C@@H](CC3CCC3)C(=O)N[C@@H]([C@@H](C)CC)C(=O)N(C)CC(=O)N(C)[C@H]3C/C=C\CCN(C3=O)[C@@H](Cc3ccc(C(F)(F)F)cc3)C(=O)N(C)CC(=O)N[C@@H](CCc3ccc(C(F)(F)F)c(OC)c3)C(=O)N2C1 [PP2825]
- HRAS/KRAS (ratio of KD value with respect to GDP-bound HRAS wild-type protein to KD value with respect to KRAS) [1]: B (a compound having 3 or more and less than 10 is denoted as B)
- NRAS/KRAS (ratio of KD value with respect to GDP-bound NRAS wild-type protein to KD value with respect to KRAS) [2]: A (a compound having 10 or more and less than 20 is denoted as A)

SMILES: CCO[C@@H]1C[C@H]2C(=O)NC3(CCC3)C(=O)N(C)[C@@H](C3CCCC3)C(=O)N(C)[C@H](C(=O)N(C)CC)CC(=O)N(C)[C@@H](CC3CCC3)C(=O)N[C@@H]([C@@H](C)CC)C(=O)N(C)CC(=O)N(C)[C@H]3C/C=C\CCN(C3=O)[C@@H](Cc3ccc(C(F)(F)F)cc3)C(=O)N(C)CC(=O)N[C@@H](CCc3ccc(C(F)(F)F)c(Cl)c3)C(=O)N2C1 [PP2826]
- HRAS/KRAS (ratio of KD value with respect to GDP-bound HRAS wild-type protein to KD value with respect to KRAS) [1]: A (a compound having 10 or more and less than 20 is denoted as A)
- NRAS/KRAS (ratio of KD value with respect to GDP-bound NRAS wild-type protein to KD value with respect to KRAS) [2]: A (a compound having 10 or more and less than 20 is denoted as A)

SMILES: CCO[C@@H]1C[C@H]2C(=O)NC3(CC(C)(C)C3)C(=O)N(C)[C@@H](C3CCCC3)C(=O)N(C)[C@H](C(=O)N(C)CC)CC(=O)N(C)[C@@H](CC(C)C)C(=O)N[C@@H]([C@@H](C)CC)C(=O)N(C)CC(=O)N(C)[C@H]3C/C=C\CCN(C3=O)[C@@H](Cc3ccc(C(F)F)cc3)C(=O)N(C)CC(=O)N[C@@H](CCc3ccc(Cl)c(Cl)c3)C(=O)N2C1 [PP2827]
- HRAS/KRAS (ratio of KD value with respect to GDP-bound HRAS wild-type protein to KD value with respect to KRAS) [1]: B (a compound having 3 or more and less than 10 is denoted as B)
- NRAS/KRAS (ratio of KD value with respect to GDP-bound NRAS wild-type protein to KD value with respect to KRAS) [2]: A (a compound having 10 or more and less than 20 is denoted as A)

SMILES: CCO[C@@H]1C[C@H]2C(=O)NC3(CC(C)(C)C3)C(=O)N(C)[C@@H](C3CCCC3)C(=O)N(C)[C@H](C(=O)N(C)CC)CC(=O)N(C)[C@@H](CC(C)C)C(=O)N[C@@H]([C@@H](C)CC)C(=O)N(C)CC(=O)N(C)[C@H]3C/C=C\CCN(C3=O)[C@@H](Cc3ccc(C(F)F)cc3)C(=O)N(C)CC(=O)N[C@@H](CCc3ccc(C(F)(F)F)c(OC)c3)C(=O)N2C1 [PP2828]
- HRAS/KRAS (ratio of KD value with respect to GDP-bound HRAS wild-type protein to KD value with respect to KRAS) [1]: A (a compound having 10 or more and less than 20 is denoted as A)
- NRAS/KRAS (ratio of KD value with respect to GDP-bound NRAS wild-type protein to KD value with respect to KRAS) [2]: A (a compound having 10 or more and less than 20 is denoted as A)

SMILES: CCO[C@@H]1C[C@H]2C(=O)NC3(CC(C)(C)C3)C(=O)N(C)[C@@H](C3CCCC3)C(=O)N(C)[C@H](C(=O)N(C)CC)CC(=O)N(C)[C@@H](CC(C)C)C(=O)N[C@@H]([C@@H](C)CC)C(=O)N(C)CC(=O)N(C)[C@H]3C/C=C\CCN(C3=O)[C@@H](Cc3ccc(C(F)F)cc3)C(=O)N(C)CC(=O)N[C@@H](CCc3ccc(C(F)(F)F)c(Cl)c3)C(=O)N2C1 [PP2829]
- HRAS/KRAS (ratio of KD value with respect to GDP-bound HRAS wild-type protein to KD value with respect to KRAS) [1]: A (a compound having 10 or more and less than 20 is denoted as A)
- NRAS/KRAS (ratio of KD value with respect to GDP-bound NRAS wild-type protein to KD value with respect to KRAS) [2]: A (a compound having 10 or more and less than 20 is denoted as A)

SMILES: CCCOC[C@H]1C(=O)N[C@@H]([C@@H](C)CC)C(=O)N(C)CC(=O)N(C)[C@H]2C/C=C\CCN(C2=O)[C@@H](Cc2ccc(C(F)(F)F)cc2)C(=O)N(C)CC(=O)N[C@@H](CCc2ccc(Cl)c(Cl)c2)C(=O)N2C[C@H](OCC)C[C@H]2C(=O)NC2(CCC2)C(=O)N(C)[C@@H](C2CCCC2)C(=O)N(C)[C@H](C(=O)N(C)CCC)CC(=O)N1C [PP2830]
- HRAS/KRAS (ratio of KD value with respect to GDP-bound HRAS wild-type protein to KD value with respect to KRAS) [1]: A (a compound having 10 or more and less than 20 is denoted as A)
- NRAS/KRAS (ratio of KD value with respect to GDP-bound NRAS wild-type protein to KD value with respect to KRAS) [2]: A (a compound having 10 or more and less than 20 is denoted as A)

SMILES: CCCOC[C@H]1C(=O)N[C@@H]([C@@H](C)CC)C(=O)N(C)CC(=O)N(C)[C@H]2C/C=C\CCN(C2=O)[C@@H](Cc2ccc(C(F)(F)F)cc2)C(=O)N(C)CC(=O)N[C@@H](CCc2ccc(C(F)(F)F)c(Cl)c2)C(=O)N2C[C@H](OCC)C[C@H]2C(=O)NC2(CCC2)C(=O)N(C)[C@@H](C2CCCC2)C(=O)N(C)[C@H](C(=O)N(C)CCC)CC(=O)N1C [PP2831]
- HRAS/KRAS (ratio of KD value with respect to GDP-bound HRAS wild-type protein to KD value with respect to KRAS) [1]: A (a compound having 10 or more and less than 20 is denoted as A)
- NRAS/KRAS (ratio of KD value with respect to GDP-bound NRAS wild-type protein to KD value with respect to KRAS) [2]: A (a compound having 10 or more and less than 20 is denoted as A)

SMILES: CCO[C@@H]1C[C@H]2C(=O)NC3(CC(C)(C)C3)C(=O)N(C)[C@@H](C3CCCC3)C(=O)N(C)[C@H](C(=O)N(C)C)CC(=O)N(C)[C@@H](CC(F)(F)F)C(=O)N[C@@H]([C@@H](C)CC)C(=O)N(C)CC(=O)N(C)[C@H]3C/C=C\CCN(C3=O)[C@@H](Cc3ccc(C(F)(F)F)cc3)C(=O)N(C)CC(=O)N[C@@H](CCc3ccc(Cl)c(Cl)c3)C(=O)N2C1 [PP2832]
- HRAS/KRAS (ratio of KD value with respect to GDP-bound HRAS wild-type protein to KD value with respect to KRAS) [1]: A (a compound having 10 or more and less than 20 is denoted as A)
- NRAS/KRAS (ratio of KD value with respect to GDP-bound NRAS wild-type protein to KD value with respect to KRAS) [2]: A (a compound having 10 or more and less than 20 is denoted as A)

SMILES: CCO[C@@H]1C[C@H]2C(=O)NC3(CC(C)(C)C3)C(=O)N(C)[C@@H](C3CCCC3)C(=O)N(C)[C@H](C(=O)N(C)C)CC(=O)N(C)[C@@H](CC(F)(F)F)C(=O)N[C@@H]([C@@H](C)CC)C(=O)N(C)CC(=O)N(C)[C@H]3C/C=C\CCN(C3=O)[C@@H](Cc3ccc(C(F)(F)F)cc3)C(=O)N(C)CC(=O)N[C@@H](CCc3ccc(C(F)(F)F)c(Cl)c3)C(=O)N2C1 [PP2833]
- HRAS/KRAS (ratio of KD value with respect to GDP-bound HRAS wild-type protein to KD value with respect to KRAS) [1]: A (a compound having 10 or more and less than 20 is denoted as A)
- NRAS/KRAS (ratio of KD value with respect to GDP-bound NRAS wild-type protein to KD value with respect to KRAS) [2]: A (a compound having 10 or more and less than 20 is denoted as A)

— patent US20250230193A1, “CYCLIC COMPOUND HAVING SELECTIVE KRAS INHIBITORY EFFECT ON HRAS AND NRAS” (CHUGAI SEIYAKU KABUSHIKI KAISHA, priority 2022, published 2025)
